Source: US20140228287A1, “1-[(3-CYANO-PYRIDIN-2-YL)METHYL]-3-METHYL-7-(2-BUTYN-1-YL)-8-[3-(R)-AMINO-PIPERIDIN-1-YL]-AXANTHINE FOR THE TREATMENT OF A METABOLIC DISORDER OF A PREDOMINANTLY CARNIVOROUS NON-HUMAN ANIMAL” (BOEHRINGER INGELHEIM VETMEDICA GMBH, priority 2010, published 2014)
“Also recorded” adds a separate entry of the source. Counter-ions that a name gives are not always drawn.

Tests used:
[1] = Multiple dose study (14 days) in cats: adverse events; type: in vivo, cat; settings: 1, 3, 9 mg/animal once daily oral for 14 days
Procedure: The aim of this study was to investigate the PK/PD effects of 1-[(3-cyano-pyridin-2-yl)methyl]-3-methyl-7-(2-butyn-1-yl)-8-[3-(R)-amino-piperidin-1-yl]-xanthine in cats following repeated oral administration of 0, 1, 3 and 9 mg/animal over 14 days corresponding to a dose of 0, 0.25, 0.75 and 2.25 mg/kg body weight for a cat weighing 4 kg. (Dosages were based on the free base: 1 mg 1-[(3-cyano-pyridin-2-yl)methyl]-3-methyl-7-(2-butyn-1-yl)-8-[3-(R)-amino-piperidin-1-yl]-xanthine monohydrochloride corresponds to 0.923 mg 1-[(3-cyano-pyridin-2-yl)methyl]-3-methyl-7-(2-butyn-1-yl)-8-[3-(R)-amino-piperidin-1-yl]-xanthine free base).
For this purpose, twelve clinically healthy male adult domestic short hair cats with a body weight range of 3.5-4.8 kg were used. The animals were randomly allocated to 4 groups, 3 animals per group. All animals were treated once daily orally for 14 days (i.e. on days 0-13). The test article was administered via capsules at doses of 1 (group II), 3 (group III) or 9 (group IV) mg of the monohydrochloride compound per animal; group I received placebo serving as controls. Blood samples for PK and PD (DPP IV activity) investigations were drawn at 0 h (i.e. prior to the 1st treatment), 0.5, 1, 2, 4, 8, 12 and 24 h after the 1st treatment as well as 24 h after the 3rd, 5th, 7th, 9th, 11th and 13th treatment and 0.5, 1, 2, 4, 8, 12 and 24 h after the 14th treatment.

[2] = test system: insulin-resistant fa/fa rats; experiment: Delayed OGTT in insulin-resistant fa/fa rats; type: in vivo, rat; settings: 3 mg/kg 16 h before OGTT
Procedure: Male Zucker Fatty (fa/fa) rats (Ico-Zucker-fa/fa (Orl)) were obtained from Iffa (France). Animals were fed ad libitum with a standard pelleted diet (Diet No. 3438, Provimi Kliba, Switzerland) and had free access to water. Animals were housed in groups with a 12 h/12 h light/dark cycle (lights out between 6 p.m. and 6 a.m.). The rats were used for the experiments between 7 and 12 weeks of age.
fa/fa rats (n=6 per group) were treated like the mice in Example 3, delayed OGTT. 1-[(3-cyano-pyridin-2-yl)methyl]-3-methyl-7-(2-butyn-1-yl)-8-[3-(R)-amino-piperidin-1-yl]-xanthine was dosed at 3 mg/kg 16 hours before the OGTT.
GLP-1 was measured using a commercially available GLP-1 (active) ELISA Kit (Catalog# EGLP-35K, Linco Research Inc., St. Charles/Mo., USA). Insulin was measured using a commercially available Rat Insulin ELISA Kit (Catalog#90060, Crystal Chem. Inc., Downers Grove/IL, USA).

[3] = 60-Day tolerability study of tablets in cats: adverse effects; type: in vivo; settings: 20 and 40 mg daily oral tablets for 60 days, monohydrochloride
Procedure: This study was conducted in order to examine the long-term tolerability of a pharmaceutical composition comprising 1-[(3-cyano-pyridin-2-yl)methyl]-3-methyl-7-(2-butyn-1-yl)-8-[3-(R)-amino-piperidin-1-yl]-xanthine monohydrochloride in cats after repeated oral administration for 60-days.
For this purpose, the compound according to the invention has been admixed with standard ingredients to a scored, oblong, brown tablet, size 10×5.5 mm, comprising 1-[(3-cyano-pyridin-2-yl)methyl]-3-methyl-7-(2-butyn-1-yl)-8-[3-(R)-amino-piperidin-1-yl]-xanthine monohydrochloride at 21.68 mg of the chloride per tablet (which equals 20 mg of the free base) and 10% meat flavour.
20 male healthy non-obese cats (Domestic short hair feline) supplied by Liberty Research, Inc., Waverly, N.Y., USA, of an age of 13 to 20 months were used. After an adaptation period of 4 weeks, they were separated into three groups: group 1 (6 members, no. 1 to 6) for placebo treatment, group 2 (7 members, no. 7 to 13) for treatment with 20 mg/cat, group 3 (7 members, no. 14 to 20) for treatment with 40 mg/cat. They were treated once daily in the morning, orally with the respective tablet(s) for 60 days. All animals had fasted over night and were fed 4 hours after the administration. Drinking water was offered ad libitum. […]

[4] = biological target: DPP 9 (Homo sapiens, UniProt Q86TI2); experiment: In vitro selectivity, human proteases: DPP 9; type: biochemical
Sequence of DPP 9 (Q86TI2 whole entry): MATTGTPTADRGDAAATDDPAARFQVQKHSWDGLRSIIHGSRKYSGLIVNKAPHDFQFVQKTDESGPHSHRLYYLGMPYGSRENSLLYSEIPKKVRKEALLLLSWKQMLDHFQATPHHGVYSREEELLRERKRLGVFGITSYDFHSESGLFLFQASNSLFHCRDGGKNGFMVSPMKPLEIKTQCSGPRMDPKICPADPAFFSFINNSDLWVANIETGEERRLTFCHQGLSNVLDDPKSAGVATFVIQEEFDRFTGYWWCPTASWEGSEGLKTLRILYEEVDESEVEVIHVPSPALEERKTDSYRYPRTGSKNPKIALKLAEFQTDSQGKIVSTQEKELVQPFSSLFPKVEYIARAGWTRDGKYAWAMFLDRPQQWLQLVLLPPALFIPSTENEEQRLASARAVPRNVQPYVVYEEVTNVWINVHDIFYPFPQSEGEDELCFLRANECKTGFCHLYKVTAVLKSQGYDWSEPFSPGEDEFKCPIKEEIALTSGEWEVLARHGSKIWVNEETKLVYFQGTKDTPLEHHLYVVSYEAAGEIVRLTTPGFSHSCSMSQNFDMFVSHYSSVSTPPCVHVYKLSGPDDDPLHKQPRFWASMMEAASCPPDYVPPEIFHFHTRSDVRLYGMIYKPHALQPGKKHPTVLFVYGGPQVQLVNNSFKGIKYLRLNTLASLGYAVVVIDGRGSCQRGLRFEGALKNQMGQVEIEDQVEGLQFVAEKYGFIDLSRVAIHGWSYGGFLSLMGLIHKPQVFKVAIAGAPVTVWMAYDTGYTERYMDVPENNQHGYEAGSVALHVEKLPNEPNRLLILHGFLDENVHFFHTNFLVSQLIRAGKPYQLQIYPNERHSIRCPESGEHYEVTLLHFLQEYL
Description: In order to determine the in vitro selectivity of 1-[(3-cyano-pyridin-2-yl)methyl]-3-methyl-7-(2-butyn-1-yl)-8-[3-(R)-amino-piperidin-1-yl]-xanthine, the ability of this compound to inhibit a number of human proteases was investigated as described in Thomas et al. (2008), J. Pharmacol. Exp. Ther., vol. 325, p. 175-182, chapter In vitro DPP-4 Inhibition Assay, p. 176.

SMILES: CC#CCn1c(N2CCC[C@@H](N)C2)nc2c1c(=O)n(Cc1ncccc1C#N)c(=O)n2C [1-[(3-cyano-pyridin-2-yl)methyl]-3-methyl-7-(2-butyn-1-yl)-8-[3-(R)-amino-piperidin-1-yl]-xanthine monohydrochloride]
- adverse events [1]: No adverse events specifically attributable to the test article were noted
- GLP-1 levels vs. control group [2]: elevated vs. the control group at all time points
- Glucose AUC 0-90 min, Change versus control, Mean Diff. % [2]: −34.4%
- Glucose AUC 0-90 min, Mean [2]: 177.00 mM·min
- Glucose AUC 0-90 min, Median [2]: 165.00 mM·min
- peak plasma insulin levels compared to vehicle treatment [2]: further elevations in peak plasma insulin levels
- reduction of area under the glucose excursion curve [2]: 34.4%
- rise of GLP-1 levels vs. baseline after the glucose stimulus [2]: 93%
- Glucose, Change versus baseline, Mean Diff. % ([2]; 30 min): 71.7%
- Glucose, Change versus control, Mean Diff. % ([2]; 30 min): −29.0%
- Glucose, Mean ([2]; 30 min): 7.90 mM
- Glucose, Median ([2]; 30 min): 8.00 mM
- Glucose, Change versus baseline, Mean Diff. % ([2]; 60 min): 39.1%
- Glucose, Change versus control, Mean Diff. % ([2]; 60 min): −23.0%
- Glucose, Mean ([2]; 60 min): 6.40 mM
- Glucose, Median ([2]; 60 min): 6.30 mM
- Glucose, Change versus baseline, Mean Diff. % ([2]; 90 min): 34.8%
- Glucose, Change versus control, Mean Diff. % ([2]; 90 min): −2.1%
- Glucose, Mean ([2]; 90 min): 6.20 mM
- Glucose, Median ([2]; 90 min): 6.30 mM
- Glucose, Change versus baseline, Mean Diff. % ([2]; 120 min): 31.3%
- Glucose, Change versus control, Mean Diff. % ([2]; 120 min): 5.7%
- Glucose, Mean ([2]; 120 min): 6.04 mM
- Glucose, Median ([2]; 120 min): 5.70 mM
- Glucose, Change versus baseline, Mean Diff. % ([2]; 180 min): 29.6%
- Glucose, Change versus control, Mean Diff. % ([2]; 180 min): 13.2%
- Glucose, Mean ([2]; 180 min): 5.96 mM
- Glucose, Median ([2]; 180 min): 6.10 mM
- Glucose, Change versus control, Mean Diff. % ([2]; Pre-load): −15.6%
- Glucose, Mean ([2]; Pre-load): 4.60 mM
- Glucose, Median ([2]; Pre-load): 4.40 mM
- adverse effects / tolerability [3]: Adverse effects were not detected; also recorded: well tolerated
- IC50 [4]: > 10 µM
